Data from patent publication US20050215520A1, “Complex of organic medicines and beta-cyclodextrin derivatives and its preparing process” (priority 2002, published 2005).

System: plasmodium
Experiment: Medicine efficacy on killing plasmodium in mice infected plasmodium
Assay type: in vivo
Details: ED90 of original medicine p.o. relative to its complex iv (complex = 1)

| Compound | ED90 comparison p.o./iv |
| --- | --- |
| C[C@H]1[C@H](OC(=O)CCC(=O)O)O[C@@H]2O[C@@]3(C)CC[C@H]4[C@H](C)CC[C@@H]1[C@@]24OO3 [Artesunate] | 1.88 |

Same assay, conditions: Plasmodium, po, read-out: efficacy (killing) ED50

| Compound | ED50 |
| --- | --- |
| C[C@H]1[C@H](OC(=O)CCC(=O)O)O[C@@H]2O[C@@]3(C)CC[C@H]4[C@H](C)CC[C@@H]1[C@@]24OO3 [Artesunate] | 9.96 mg/kg |

System: not listed separately
Experiment: Critical mole ratio or critical mass ratio of medicines and beta-cyclodextrin derivative (Table 1, examples)
Assay type: physicochemical
Details: not given
Protocol: The critical mole ratio or critical mass ratio in the present invention refers to the mole ratio and mass ratio when complex of organic medicine and beta-cyclodextrin derivatives prepared with the method of this invention is dissolved exactly in water of specified amount to form stable aqueous solution.
The critical value of organic medicine and beta-cyclodextrin derivatives in the present invention, may be determined with the undermentioned unit test method.
All kinds of mole ratio and mass ratio of the medicine and beta-cyclodextrin derivative is made into complex with expanding loose body according to the method of the present invention, then the set water is added into the a variety of compounding ratio of complex, and by observing properties of the solution, the compounding ratio of exactly dissolving in water and with stable property, acts as the critical mole ratio or critical mass ratio of the present invention.
The critical mole ratio and critical mass ratio in the present invention may be determined with the undermentioned saturated solution method.
Weighing accurately medicine, and placing in the container, and gradually adding beta-cyclodextrin aqueous solution metered accurately with agitation, until the medicine is dissolved exactly and completely in this aqueous solution. Calculate both mass number here and convert it to mole number. Repeat the above-mentioned test, and get the mean mole number of repeated test, and calculate critical mole ratio with the undermentioned formula: Critical mole ratio of medicine=mean mole number of beta-cyclodextrin/mean mole number of medicine

| Compound | Critical value mole ratio |
| --- | --- |
| CN1C(=O)CN=C(c2ccccc2)c2cc(Cl)ccc21 [Diazepam] | 3 |
| C[C@]12CC[C@H]3[C@@H](CCC4=CC(=O)CC[C@@]43C)[C@@H]1CC[C@@H]2O [testosterone] | 4 |

Same assay, conditions: beta-cyclodextrin derivative (hydroxide propyl beta-cyclodextrin in the examples) to medicine; complex dissolves exactly in water to stable solution

| Compound | Critical value mole ratio | Critical value Mass ratio |
| --- | --- | --- |
| CC1(C)S[C@@H]2[C@H](NC(=O)[C@H](N)c3ccccc3)C(=O)N2[C@H]1C(=O)O [Ampicilline] | 3 | – |
| C[C@H]1[C@H](OC(=O)CCC(=O)O)O[C@@H]2O[C@@]3(C)CC[C@H]4[C@H](C)CC[C@@H]1[C@@]24OO3 [Artesunate] | 3 | – |
| CC[C@H]1OC(=O)[C@H](C)[C@@H](O[C@H]2C[C@@](C)(OC)[C@@H](O)[C@H](C)O2)[C@H](C)[C@@H](O[C@@H]2O[C@H](C)C[C@H](N(C)C)[C@H]2O)[C@](C)(O)C[C@@H](C)CN(C)[C@H](C)[C@@H](O)[C@]1(C)O [Azithromycin] | 16 | – |
| CN(Cc1cc(Br)cc(Br)c1N)C1CCCCC1 [Bromhexine] | 3 | – |
| CS(=O)(=O)OCCCCOS(C)(=O)=O [Busulfan] | 5 | – |
| O=C(O)c1cn(C2CC2)c2cc(N3CCNCC3)c(F)cc2c1=O [Ciprofloxacin] | 5 | – |
| CC[C@H]1OC(=O)[C@H](C)[C@@H](O[C@H]2C[C@@](C)(OC)[C@@H](O)[C@H](C)O2)[C@H](C)[C@@H](O[C@@H]2O[C@H](C)C[C@H](N(C)C)[C@H]2O)[C@](C)(OC)C[C@@H](C)C(=O)[C@H](C)[C@@H](O)[C@]1(C)O [Clarithromycin] | 18 | – |
| Clc1ccccc1C(c1ccccc1)(c1ccccc1)n1ccnc1 [Clotrimazole] | 4 | – |
| CC(CN1c2ccccc2S(=O)(=O)c2ccccc21)N(C)C (stereo not shown) [Dioxopromethazine] | – | 2 |
| CC[C@H]1OC(=O)[C@H](C)[C@@H](O[C@H]2C[C@@](C)(OC)[C@@H](O)[C@H](C)O2)[C@H](C)[C@@H](O[C@@H]2O[C@H](C)C[C@H](N(C)C)[C@H]2O)[C@](C)(O)C[C@@H](C)C(=O)[C@H](C)[C@@H](O)[C@]1(C)O [Erythromycin] | 6 | – |
| Clc1ccc2c(c1)C(c1ccccc1)=NCc1nncn1-2 [Estazolam] | – | 20 |
| COc1cc([C@@H]2c3cc4c(cc3[C@@H](O[C@@H]3O[C@@H]5CO[C@@H](C)O[C@H]5[C@H](O)[C@H]3O)[C@H]3COC(=O)[C@H]23)OCO4)cc(OC)c1O [Etoposide] | 10 | – |
| CC(C)Cc1ccc(C(C)C(=O)O)cc1 (stereo not shown) [Ibuprofen] | – | 8 |
| CC(=O)N1CCN(c2ccc(OCC3COC(Cn4ccnc4)(c4ccc(Cl)cc4Cl)O3)cc2)CC1 (stereo not shown) [Ketoconazole] | 3 | – |
| CCN1C[C@]2(OC(=O)c3ccccc3NC(C)=O)CC[C@H](OC)[C@@]34[C@@H]2C[C@@H]([C@@H]13)[C@@]1(O)C[C@H](OC)[C@H]2C[C@@H]4[C@]1(O)[C@H]2OC [Lappaconitine] | 2 | – |
| O=C1Nc2ccc(Cl)cc2C(c2ccccc2Cl)=NC1O (stereo not shown) [Lorazepam] | 3 | – |
| CC[C@H](C)C(=O)O[C@H]1C[C@@H](C)C=C2C=C[C@H](C)[C@H](CC[C@@H]3C[C@@H](O)CC(=O)O3)[C@H]21 [Lovastatin] | 26 | – |
| Cc1ncc([N+](=O)[O-])n1CCO [Metronidazole] | – | 9 |
| Clc1ccc(COC(Cn2ccnc2)c2ccc(Cl)cc2Cl)c(Cl)c1 (stereo not shown) [Miconazole] | 6 | – |
| CN1C(C(=O)Nc2ccccn2)=C(O)c2ccccc2S1(=O)=O [Piroxicam] | – | 15 |
| C[C@]12CC[C@H](O)CC1=CC[C@@H]1[C@@H]2CC[C@]2(C)C(=O)CC[C@@H]12 [Prasterone] | 3 | – |
| COc1cc2c(cc1OC)[C@@H]1Cc3ccc(OC)c(OC)c3CN1CC2 [Rotundine] | 1 | – |
| CC[C@H]1OC(=O)[C@H](C)[C@@H](O[C@H]2C[C@@](C)(OC)[C@@H](O)[C@H](C)O2)[C@H](C)[C@@H](O[C@@H]2O[C@H](C)C[C@H](N(C)C)[C@H]2O)[C@](C)(O)C[C@@H](C)/C(=N\OCOCCOC)[C@H](C)[C@@H](O)[C@]1(C)O [Roxithromycin] | 18 | – |
| CC(C)CC(N(C)C)C1(c2ccc(Cl)cc2)CCC1 (stereo not shown) [Sibutramine] | – | 2 |
| CCCc1nn(C)c2c(=O)[nH]c(-c3cc(S(=O)(=O)N4CCN(C)CC4)ccc3OCC)nc12 [Sildenafil] | 2 | – |
| COc1cc(Cc2cnc(N)nc2N)cc(OC)c1OC [TMP] | 3 | – |
| CC/C(=C(\c1ccccc1)c1ccc(OCCN(C)C)cc1)c1ccccc1 [Tamoxifen] | 2 | – |

| Compound | Critical value mole ratio | Critical value Mass ratio |
| --- | --- | --- |
| CC(=O)O[C@H]1C(=O)[C@@]2(C)[C@H]([C@H](OC(=O)c3ccccc3)[C@]3(O)C[C@H](OC(=O)[C@H](O)[C@@H](NC(=O)c4ccccc4)c4ccccc4)C(C)=C1C3(C)C)[C@]1(OC(C)=O)CO[C@@H]1C[C@@H]2O [Taxol] | 100 | – |
| CCS(=O)(=O)CCn1c([N+](=O)[O-])cnc1C [Tinidazole] | – | 6.5 |
| Cc1ccc(-c2nc3ccc(C)cn3c2CC(=O)N(C)C)cc1 [Zolpidem] | 2 | – |
| CC1(C)C2CCC1(C)C(O)C2 (stereo not shown) [borneol] | – | 6 |
| Cn1c(=O)c2c(ncn2C)n(C)c1=O [caffein] | – | 4 |
| CC12CCC(CC1=O)C2(C)C (stereo not shown) [camphor] | – | 8 |
| CC(C)(O)C(Cl)(Cl)Cl [chlorbutanol] | – | 6 |
| OC(CCCN1CCCCC1)(c1ccccc1)c1ccccc1 [difenidol] | 1 | – |
| NC(N)=Nc1nc(CSCCC(N)=NS(N)(=O)=O)cs1 [famotidine] | – | 9 |
| Cc1ccc(S(=O)(=O)NC(=O)NN2CC3CCCC3C2)cc1 (stereo not shown) [gliclazide] | 2 | – |
| CN1CCC(=C2c3ccccc3CC(=O)c3sccc32)CC1 [ketotifen] | – | 4 |
| Cc1nc(C)c(C)nc1C [ligustrazine] | – | 12 |
| O=C(O)CCCC[C@@H]1CCSS1 [lipoic acid] | 1 | – |
| CC1CCC(C(C)C)C(O)C1 (stereo not shown) [menthol] | 2 | – |
| CCOC(=O)[N-]c1cn(N2CCOCC2)n[o+]1 [molsidomine] | – | 11 |
| CCn1cc(C(=O)O)c(=O)c2cc(F)c(N3CCNCC3)cc21 [norfloxacin] | – | 30 |
| CC(=O)Nc1ccc(O)cc1 [paracetamol] | – | 3 |
| C[C@]12C=CC(=O)C=C1CC[C@@H]1[C@@H]2C(=O)C[C@@]2(C)[C@H]1CC[C@]2(O)C(=O)CO [prednisone] | 4 | – |
| CC(=O)S[C@@H]1CC2=CC(=O)CC[C@]2(C)[C@H]2CC[C@@]3(C)[C@@H](CC[C@@]34CCC(=O)O4)[C@H]12 [spironolactone] | 3 | – |
| Nc1ccc(S(=O)(=O)Nc2ncccn2)cc1 [sulfadiazine] | 3 | – |
| Cc1noc(NS(=O)(=O)c2ccc(N)cc2)c1C [sulfafurazole] | 2 | – |
| Cc1cc(NS(=O)(=O)c2ccc(N)cc2)no1 [sulfamethoxazole] | 2 | – |
| NC(=O)CCCCC1CCSS1 (stereo not shown) [thioctamide] | – | 7 |
| COc1cc(C=O)ccc1O [vanillin] | – | 9 |
| Artemoter | 8 | – |
| Medicamycin | 8 | – |
| Oryzanol | – | 38 |
